Tested on: abdominal aorta
Assay: Abdominal aortic ring vascular reactivity (organ bath)
Type: cell-based, mice
Conditions: contractile response
Protocol: Aortic Vascular Reactivity: Abdominal aortic rings were assessed for vascular reactivity as previously described (32). Briefly, mice were euthanized by overdose of pentobarbital (50 mg, i.p.), and the abdominal aorta was quickly removed and placed in Kreb's buffer containing (in mmol/L): 118.3 NaCl, 4.7 KCl, 1.2 MgSO4, 1.2 KH2PO4, 25 NaHCO3, 2.5 CaCl2 and 11 glucose. Vascular rings (4-5 mm in length) were suspended in oxygenated Kreb's buffer (95% O2/5% CO2) in organ baths at 37° C. and connected to a force transducer via steel hooks. Resting tension was adjusted to 0.5 grams over 45 minutes. Contractile responses were tested in response to AVP (10^−10-10^−6 mol/L), phenylephrine (PE, 10^−8-3×10^−5), endothelin-1 (ET-1, 10^−10-10^−7), prostaglandin F2α (PGF2α, 10^−7-10^−4), and angiotensin II (Ang II, 10^−10-10^−7). Following sub-maximal contraction with PGF2α (40-50% of max; 3×10^−6-6×10^−6), relaxation responses to acetylcholine (10^−8-3×10^−5) and sodium nitroprusside (10^−9-10^−5) were determined.
Statistics: Data were analyzed by ANOVA with repeated measures as appropriate. Post-hoc analyses were performed using Bonferroni multiple-comparisons procedures. EC50 and maximum response calculations were performed by fitting individual dose-response data sets to a four-parameter logistic function (Hillslope method); y=min+([…])/(1+(x/EC50)^Hillslope). All mRNA fold changes were calculated using the Livak method (54). All analytical comparisons were performed using SigmaStat/SigmaPlot (Systat). All data are presented as mean±sem.

Structure (SMILES): NC(=O)CC[C@@H]1NC(=O)[C@H](Cc2ccccc2)NC(=O)[C@H](Cc2ccc(O)cc2)NC(=O)[C@@H](N)CSSC[C@@H](C(=O)N2CCC[C@H]2C(=O)N[C@@H](CCCN=C(N)N)C(=O)NCC(N)=O)NC(=O)[C@H](CC(N)=O)NC1=O [Arginine vasopressin]
- Maximum Response (male Control mice): 0.29 ± 0.03 g
- Maximum Response (male sRA mice): 0.12 ± 0.01 g

From patent US9937182B2, “Therapeutic strategies for the treatment of preeclampsia” (UNIVERSITY OF IOWA RESEARCH FOUNDATION, priority 2013, dated 2018)
